ChEMBL document CHEMBL1131608, “Structure-activity relationships and molecular modeling of 3, 5-diacyl-2,4-dialkylpyridine derivatives as selective A3 adenosine receptor antagonists” (J Med Chem, 1998)

How the values were obtained:
Adenosine receptor A2a [1] = target: T1, Adenosine receptor A2a (Rattus norvegicus, UniProt P30543); test: Binding affinity for adenosine A2A receptor as displacement of [3H]-CGS- 21680 from rat striatal membranes; assay type: cell membranes, Membrane
Adenosine receptor A1 [2] = target: T2, Adenosine receptor A1 (Rattus norvegicus, UniProt P25099); test: Binding affinity for adenosine A1 receptor as displacement of [3H]R-PIA from rat brain membranes; assay type: cell membranes, Membrane
T2 sequence (P25099 whole entry): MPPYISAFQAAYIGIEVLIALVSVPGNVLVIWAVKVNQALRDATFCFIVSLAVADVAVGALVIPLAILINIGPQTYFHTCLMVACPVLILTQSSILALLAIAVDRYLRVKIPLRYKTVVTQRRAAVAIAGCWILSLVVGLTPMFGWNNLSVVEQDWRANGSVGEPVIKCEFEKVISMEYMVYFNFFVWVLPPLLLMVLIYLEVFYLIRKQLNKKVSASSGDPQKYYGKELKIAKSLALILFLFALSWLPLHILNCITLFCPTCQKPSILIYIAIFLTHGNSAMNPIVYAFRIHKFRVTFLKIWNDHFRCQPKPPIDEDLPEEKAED

[3] = target: Adenosine receptor A2a (Rattus norvegicus) (UniProt P30543); test: Binding affinity towards adenosine A2A receptor by measuring its ability to displace [3H]-CGS- 21680 in rat striatal membranes at a concentration of 10e-4 M; assay type: cell membranes; conditions: Striatum, Membrane
[4] = target: T3, Adenosine receptor A3 (Homo sapiens) (UniProt P0DMS8); test: Binding affinity towards adenosine A3 receptor by measuring its ability to displace [125I]AB-MECA binding to membranes prepared from HEK293 cells; assay type: cell membranes
T3 sequence (whole entry): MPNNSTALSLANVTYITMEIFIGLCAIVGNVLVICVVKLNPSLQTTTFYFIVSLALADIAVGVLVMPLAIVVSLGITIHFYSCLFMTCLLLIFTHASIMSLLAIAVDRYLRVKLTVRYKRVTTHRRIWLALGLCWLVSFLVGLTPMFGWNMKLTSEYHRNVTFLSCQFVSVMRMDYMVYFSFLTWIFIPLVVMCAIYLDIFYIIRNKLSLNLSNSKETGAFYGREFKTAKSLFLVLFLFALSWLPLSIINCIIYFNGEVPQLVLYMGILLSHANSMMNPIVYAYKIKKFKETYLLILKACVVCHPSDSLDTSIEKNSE

[5] = target: T4, Adenosine receptor A1 (Rattus norvegicus) (UniProt P25099); test: Binding affinity towards adenosine A1 receptor by measuring its ability to displace [3H]-R-PIA in rat brain membranes at a concentration of 10e-4 M; assay type: cell membranes
T4 sequence (whole entry): T2 sequence (P25099 whole entry)

HEK293 = test: Selectivity for binding affinity towards A1 adenosine receptor in rat brain membrane and human A3 receptor expressed in HEK cells; assay type: cell-based
Adenosine receptor A1 [6] = target: T2, Adenosine receptor A1; test: Binding affinity for adenosine A1 receptor as displacement of [3H]R-PIA from rat brain membranes at 10e-4 M; assay type: cell membranes, Membrane
[7] = target: Adenosine receptor A2a (Rattus norvegicus) (UniProt P30543); test: Binding affinity for adenosine A2A receptor as displacement of [3H]-CGS- 21680 from rat striatal membranes at 10e-4 M; assay type: cell membranes; conditions: Membrane
[8] = target: T3, Adenosine receptor A3 (Homo sapiens); test: Binding affinity for adenosine A3 receptor as displacement of [125I]AB-MECA from HEK293 cell membranes at 10e-4 M
Adenosine receptor A2a [9] = target: T1, Adenosine receptor A2a

T1 sequence (P30543 whole entry): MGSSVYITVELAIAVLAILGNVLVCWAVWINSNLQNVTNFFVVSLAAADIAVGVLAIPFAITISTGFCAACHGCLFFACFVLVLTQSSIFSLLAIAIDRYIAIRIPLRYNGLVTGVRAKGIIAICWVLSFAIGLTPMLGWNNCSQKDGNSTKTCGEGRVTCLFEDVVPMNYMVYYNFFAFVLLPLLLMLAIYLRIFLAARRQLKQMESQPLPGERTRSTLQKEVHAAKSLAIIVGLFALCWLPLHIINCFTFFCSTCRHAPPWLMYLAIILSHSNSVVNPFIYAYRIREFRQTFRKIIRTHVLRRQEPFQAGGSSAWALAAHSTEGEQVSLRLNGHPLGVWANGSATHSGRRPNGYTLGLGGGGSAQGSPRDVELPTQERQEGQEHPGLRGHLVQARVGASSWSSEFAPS
Sequence of Adenosine receptor A2a (Rattus norvegicus) (P30543 whole entry): as above

Compound | inhibition [3] [%] | Ki [4] [µM] | inhibition [5] [%] | Ratio (HEK293) | further results
CCCO/C(O)=C1\C(C)=NC(c2ccccc2)=C(C(=O)OCC)C1C (centres undefined) | – | – | – | – | Ki (Adenosine receptor A2a [1]): 28.9 µM; Ki (Adenosine receptor A1 [2]): 17.4 µM
CCO/C(O)=C1\C(C)=NC(c2ccccc2)=C(C(=O)OCc2ccccc2)C1C#Cc1ccccc1 (centres undefined) | < 10 | – | – | – | –
CCOC(=O)c1c(-c2ccccc2)nc(C)c(C(=O)SCC)c1CC | 14.9 | 0.143 | 14.8 | 340 | –
CCOC(=O)c1c(C)nc(-c2ccccc2)c(C(=O)OCC)c1C=O | 2.56 | 1.98 | 9.56 | 4.8 | –
CNC(=O)[C@H]1O[C@@H](n2cnc3c(NCc4ccc(N)c(I)c4)ncnc32)[C@H](O)[C@@H]1O | – | – | – | – | Ki (Adenosine receptor A1 [6]): 0.0034 µM
CCCc1c(C(=O)SCC)c(C)nc(-c2ccccc2)c1C(=O)OCC | 7.53 | 0.194 | 29 | > 700 | –
CCS/C(O)=C1\C(C)=NC(c2ccccc2)=C(C(=O)OCc2ccccc2)C1CC (centres undefined) | – | 1.65 | 45 | > 50 | inhibition [7]: 14.3%
CCOC(=O)c1c(C)nc(C2CCCC2)c(C(=O)OCc2ccccc2)c1C#Cc1ccccc1 | – | – | – | 15 | –
CCOC(=O)c1c(CC)nc(-c2ccccc2)c(C(=O)OCC)c1C | 13.4 | 0.121 | 10.3 | 85 | –
CCOC(=O)C1=C(c2ccccc2)N=C(C)/C(=C(/O)OCC)C1CC (centres undefined) | – | – | – | – | Ki (Adenosine receptor A2a [1]): 21.8 µM
CCOC(=O)c1c(-c2ccccc2)nc(CC)c(C(=O)SCC)c1CC | 6.13 | 0.02 | 41 | > 3000 | –
CCCSC(=O)c1c(CC)nc(-c2ccccc2)c(C(=O)OCC)c1CC | 15.7 | 0.0159 | 8.22 | 520 | –
CCOC(=O)C1=C(c2ccccc2)N=C(C)/C(=C(/O)SCCOC)C1CC (centres undefined) | – | 4.58 | 36 | > 10 | inhibition [7]: 12.5%
CCSC(=O)c1c(CC)nc(-c2ccccc2)c(C(=O)OCCO)c1CC | 10 | 0.188 | 17.4 | 93 | –
CCCOC(=O)c1c(-c2cccc(Cl)c2)nc(CC)c(C(=O)SCCC)c1CC | 24.1 | 0.00794 | 41.4 | 5200 | –
CCOC(=O)C1=C(C)NC(C2CCC2)=C(C(=O)OCc2ccccc2)C1C#Cc1ccccc1 (centres undefined) | – | – | 36 | – | inhibition [7]: 10%
CCOC(=O)c1c(-c2ccccc2)nc(C)c(C(=O)SCCOC)c1CC | 7.98 | 0.165 | 36 | > 500 | –
CCCCc1nc(-c2ccccc2)c(C(=O)OCC)c(CC)c1C(=O)SCC | < 10 | 0.035 | 40.3 | 1200 | –
CCOC(=O)C1=C(c2ccccc2)N=C(C)/C(=C(/O)SCC)C1CC (centres undefined) | 54.8 | – | 35.4 | – | –
CCOC(=O)C1=C(c2ccccc2)N=C(C)/C(=C(/O)OCC)C1/C=C/c1ccccc1 (centres undefined) | 4.77 | – | – | – | –
CCOC(=O)C1=C(c2ccccc2)N=C(CC)/C(=C(/O)SCC)C1CC (centres undefined) | 29.1 | 0.907 | 34 | > 50 | –
CCSC(=O)c1c(C)nc(-c2ccccc2)c(C(=O)Oc2ccccc2)c1CC | 12.8 | 2.61 | 20 | > 40 | –
CCOC(=O)c1c(C)nc(-c2ccccc2)c(C(=O)OCC)c1C | 28.4 | – | – | – | –

Compound | inhibition [3] [%] | Ki [4] [µM] | inhibition [5] [%] | Ratio (HEK293) | further results
CCOC(=O)c1c(-c2ccccc2)nc(CCOC)c(C(=O)SCC)c1CC | 12.6 | 0.0168 | 10.1 | 600 | –
CCOC(=O)C1=C(c2ccccc2)N=C(CC)/C(=C(/O)OCC)C1C (centres undefined) | – | – | 20 | – | inhibition [7]: < 10%
CCCc1nc(-c2ccccc2)c(C(=O)OCC)c(CC)c1C(=O)SCC | 2.82 | 0.0333 | 16.7 | 500 | –
CCOC(=O)C1=C(c2ccccc2)N=C(C)/C(=C(/O)OCC)C1C(OC)OC (centres undefined) | < 10 | 15.3 | 32 | > 5 | –
CCOC(=O)c1c(C)nc(C2CCC2)c(C(=O)OCc2ccccc2)c1C#Cc1ccccc1 | – | – | < 10 | – | –
CCOC(=O)c1c(-c2ccccc2)nc(CC)c(C(=O)O)c1CC | 7.09 | 1.28 | 4.25 | 3.3 | –
CCCOC(=O)c1c(C)nc(-c2ccccc2)c(C(=O)OCC)c1C | 24.5 | 0.215 | 5.05 | 23 | –
CCCOC(=O)c1c(-c2ccccc2)nc(CC)c(C(=O)SCC)c1CC | < 10 | 0.00829 | 7.77 | 940 | –
CCOC(=O)c1c(C)nc(-c2ccccc2)c(C(=O)OCc2ccccc2)c1C#Cc1ccccc1 | – | – | – | 4.2 | Ki (Adenosine receptor A2a [1]): 43 µM; inhibition [8]: 2.75%
CCOC(=O)c1c(C2CCCC2)nc(CC)c(C(=O)SCC)c1CC | 26.1 | 3.38 | 55.3 | 16 | –
CCOC(=O)C1=C(C)NC(C2CCCC2)=C(C(=O)OCc2ccccc2)C1C#Cc1ccccc1 (centres undefined) | – | – | – | 340 | –
CCCC1C(C(=O)OCC)=C(c2ccccc2)N=C(C)/C1=C(/O)SCC (centres undefined) | – | – | 48 | – | inhibition [7]: 29%
CCOC(=O)C1=C(C)NC(C2CCCCC2)=C(C(=O)OCc2ccccc2)C1C#Cc1ccccc1 (centres undefined) | – | – | 22 | – | inhibition [7]: 20%
CCOC(=O)c1c(C)nc(-c2ccccc2)c(C(=O)OCC)c1C(OC)OC | 2.88 | 0.783 | 1.95 | 2.5 | –
CCOC(=O)c1c(-c2ccccc2)nc(C2CCC2)c(C(=O)SCC)c1CC | 22 | 0.145 | 30 | > 500 | –
CCOC(=O)c1c(C)nc(-c2ccccc2)c(C(=O)OCC)c1CC | 3.69 | 0.176 | 3.36 | 19 | –
CCCC1=NC(c2ccccc2)=C(C(=O)OCC)C(CC)/C1=C(\O)SCC (centres undefined) | < 10 | 2.09 | 26 | > 20 | –
CCOC(=O)C1=C(c2ccccc2)N=C(C)/C(=C(/O)OCC)C1C=O (centres undefined) | 32 | 15.6 | 26 | 6 | –
CCOC(=O)c1c(-c2cccc(Cl)c2)nc(CC)c(C(=O)SCC)c1CC | 8.91 | 0.0134 | 8.2 | 610 | –
CCCOC(=O)c1c(-c2ccccc2)nc(CC)c(C(=O)SCC)c1CCC | 2.05 | 0.0189 | 15.6 | 830 | –
CCOC(=O)C1=C(C)NC(C2CC2)=C(C(=O)OCc2ccccc2)C1C#Cc1ccccc1 (centres undefined) | – | – | 22 | – | inhibition [7]: 10%
CCO/C(O)=C1\C(C)=NC(c2ccccc2)=C(C(=O)OCc2ccc([N+](=O)[O-])cc2)C1C#Cc1ccccc1 (centres undefined) | – | – | – | – | Ki (Adenosine receptor A1 [6]): > 100 µM; Ki (Adenosine receptor A2a [9]): > 100 µM
